pEC50, pIC50: −log10 of the molar value.
Columns and labels:
human GLP-1R receptor = target: T1, human GLP-1R receptor (Homo sapiens, UniProt P43220, L260F); assay: CHOK1 GLP-1R cAMP assay (HTRF); format: cell-based; settings: CHO-K1 cells stably expressing human GLP-1R
T1 construct: expressed in transfected cells; host or cells: CHO-K1 (ATCC CCL-61)
Summary of the method: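 Cells were CHO-K1 stably expressing human GLP-1R (Leu260Phe variant), at 800 cells/well in HEPES pH 7.4/HBSS/0.1% BSA with IBMX, stimulated 20 min at rt. cAMP was measured by competitive HTRF and converted via a standard curve. EC50 came from a 4-parameter logistic fit, with % effect relative to a saturating GLP-1(7-36)NH2 concentration.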

GLP-1R = target: T2, GLP-1R (Homo sapiens, UniProt P43220); assay: EndoC cAMP accumulation assay (HTRF, EndoC-βH1 cells); format: cell-based; settings: EndoC-βH1 human pancreatic β cell line
T2 construct: host or cells: EndoC-βH1
Summary of the method: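 Thawed cryopreserved EndoC-βH1 cells, about 3000 per well, were stimulated for 30 min at room temperature. Buffer was HBSS with 25 mM HEPES pH 7.4, 0.1% BSA and 0.5 mM IBMX. cAMP was measured by competitive HTRF after 1 h lysis/detection (590/660 nm). Four-parameter fits gave % activation between basal and maximal GIP (82.5 nM) signal.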

[1] = target: T3, human phosphodiesterase-3A (Homo sapiens, UniProt Q14432); assay: PDE3 assay (formation of 5'AMP from cAMP, SPA); format: biochemical; settings: human recombinant enzyme expressed in Sf9 cells
T3 construct: host or cells: Sf9 (Spodoptera frugiperda)
Experimental: Evaluation of the effects of compounds on the activity of the human phosphodiesterase-3A is quantified by measuring the formation of 5′AMP from cAMP using a human recombinant enzyme expressed in a clonal isolate of Spodoptera frugiperda cells (Sf9) cells.
The test compound, reference compound or water (control) are added to a buffer containing 40 mM tris(hydroxymethyl)aminomethane (Tris)/HCl (pH 7.4) and 8 mM MgCl2, 450 nMcAMP and 0.25 μCi [3H]cAMP.
Thereafter, the reaction is initiated by addition of the enzyme (about 1 U) and the mixture is incubated for 20 min at 22° C.
For basal control measurements, the enzyme is omitted from the reaction mixture.
Following incubation SPA beads are added. After 30 min at 22° C. under shaking, the amount of [^3H]5′AMP is quantified with a scintillation counter (Topcount, Packard).
The results are expressed as a percent inhibition of the control enzyme activity. The standard inhibitory reference compound is milrinone (CAS number 78415-72-2), which is tested in each experiment at several concentrations to obtain an inhibition curve from which its IC50 value is calculated.

T1 sequence (P43220 24-463 L260F): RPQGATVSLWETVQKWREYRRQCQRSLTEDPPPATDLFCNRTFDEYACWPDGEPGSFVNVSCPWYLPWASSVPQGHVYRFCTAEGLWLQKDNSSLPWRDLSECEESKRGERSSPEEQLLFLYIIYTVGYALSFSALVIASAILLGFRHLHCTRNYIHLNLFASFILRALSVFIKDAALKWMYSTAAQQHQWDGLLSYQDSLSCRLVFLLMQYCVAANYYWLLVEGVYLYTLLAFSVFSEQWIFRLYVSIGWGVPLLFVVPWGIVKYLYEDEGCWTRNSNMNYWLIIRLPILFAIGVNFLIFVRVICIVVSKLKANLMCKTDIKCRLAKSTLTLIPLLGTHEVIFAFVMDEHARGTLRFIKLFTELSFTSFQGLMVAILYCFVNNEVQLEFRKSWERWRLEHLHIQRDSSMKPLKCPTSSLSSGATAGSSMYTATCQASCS
T3 sequence (Q14432 whole entry): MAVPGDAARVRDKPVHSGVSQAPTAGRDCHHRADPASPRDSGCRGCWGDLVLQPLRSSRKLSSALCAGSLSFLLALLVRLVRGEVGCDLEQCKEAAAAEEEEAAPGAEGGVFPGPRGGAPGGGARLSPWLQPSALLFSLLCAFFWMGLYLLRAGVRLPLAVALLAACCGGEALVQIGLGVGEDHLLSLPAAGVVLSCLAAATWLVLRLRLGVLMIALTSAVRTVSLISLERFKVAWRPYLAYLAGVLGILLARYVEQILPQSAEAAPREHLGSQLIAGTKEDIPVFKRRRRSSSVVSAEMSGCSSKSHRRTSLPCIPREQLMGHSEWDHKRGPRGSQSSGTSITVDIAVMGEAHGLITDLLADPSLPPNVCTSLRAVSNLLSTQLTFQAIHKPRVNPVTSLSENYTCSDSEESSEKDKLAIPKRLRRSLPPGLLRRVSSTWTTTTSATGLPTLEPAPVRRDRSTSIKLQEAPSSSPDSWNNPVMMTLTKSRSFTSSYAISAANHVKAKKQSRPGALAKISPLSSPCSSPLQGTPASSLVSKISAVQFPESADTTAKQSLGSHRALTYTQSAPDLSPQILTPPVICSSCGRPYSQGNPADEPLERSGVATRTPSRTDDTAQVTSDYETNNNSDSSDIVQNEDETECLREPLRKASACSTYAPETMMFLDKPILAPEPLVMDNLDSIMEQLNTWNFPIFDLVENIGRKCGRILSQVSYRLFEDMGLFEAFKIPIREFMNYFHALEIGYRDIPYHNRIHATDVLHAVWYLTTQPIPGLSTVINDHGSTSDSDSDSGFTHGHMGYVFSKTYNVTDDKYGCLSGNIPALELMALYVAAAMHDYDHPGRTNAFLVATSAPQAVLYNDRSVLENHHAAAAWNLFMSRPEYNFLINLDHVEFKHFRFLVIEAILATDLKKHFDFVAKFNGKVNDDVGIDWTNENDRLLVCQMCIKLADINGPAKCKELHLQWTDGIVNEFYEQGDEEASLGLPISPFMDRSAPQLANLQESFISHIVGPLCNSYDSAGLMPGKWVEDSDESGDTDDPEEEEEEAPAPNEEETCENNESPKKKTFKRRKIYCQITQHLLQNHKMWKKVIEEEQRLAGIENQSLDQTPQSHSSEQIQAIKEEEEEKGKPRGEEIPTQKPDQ
T2 sequence (P43220 24-463): as the sequence (P43220 24-463 L260F) above, with F237L counted along it

O=C(O)c1cc(F)c2nc(CN3CCN(c4cccc(OCc5ccc(Cl)cc5F)n4)[C@@H]4COC[C@@H]43)n(C[C@@H]3CCO3)c2c1 (single isomer, unassigned) [Example 19a, 2-(((4aR*,7aS*)-4-(6-((4-Chloro-2-fluorobenzyl)oxy)pyridin-2-yl)hexahydrofuro[3,4-b]pyrazin-1(2H)-yl)methyl)-4-fluoro-1-(((S)-oxetan-2-yl)methyl)-1H-benzo[d]imidazole-6-carboxylic acid]
pEC50 (human GLP-1R receptor): 8.82
pEC50 (GLP-1R): 8.40
pIC50 [1]: 4.66

Source: patent US20250115612A1, “CERTAIN 2,5-DIAZABICYCLO[4.2.0]OCTANES AND OCTAHYDROFURO[3,4-B]PYRAZINES AS GLP-1 RECEPTOR MODULATORS” (ASTRAZENECA AB, priority 2021, published 2025)
